Experiment [1] deals with T1, S1P1 (Homo sapiens, UniProt P21453). The experiment is described as follows: Tango β-arrestin Recruitment Assay in HEK293 cells (Assay 2a). Conditions: Tango β-arrestin Recruitment Assay, read-out: Assay 2a EC50. It is filed as cell-based. Details: linker with TEV protease (N1a) cleavage site (C); host or cells: HEK293, transiently transfected. The essentials:
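Agonist-driven β-arrestin2–TEV recruitment releases tTA to drive luciferase in transiently transfected HEK293 cells. Ten 3-fold dilutions from 10 μM top (1% DMSO), 16–18 h at 37 °C; EC50 fitted to percent activity versus DMSO background and 5 μM S1P efficacy control.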
Target sequence in this assay (P21453 whole entry): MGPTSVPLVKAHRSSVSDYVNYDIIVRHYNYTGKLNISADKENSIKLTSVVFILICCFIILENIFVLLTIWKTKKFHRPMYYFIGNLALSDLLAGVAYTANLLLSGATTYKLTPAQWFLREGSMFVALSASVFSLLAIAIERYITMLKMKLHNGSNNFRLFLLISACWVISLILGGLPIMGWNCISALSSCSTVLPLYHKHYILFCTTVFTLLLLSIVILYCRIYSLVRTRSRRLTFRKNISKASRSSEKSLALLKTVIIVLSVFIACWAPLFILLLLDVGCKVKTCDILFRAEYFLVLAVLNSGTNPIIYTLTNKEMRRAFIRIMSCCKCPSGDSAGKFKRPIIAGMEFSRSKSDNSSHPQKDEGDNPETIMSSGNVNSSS
Target sequence in this assay (P32121 whole entry partner): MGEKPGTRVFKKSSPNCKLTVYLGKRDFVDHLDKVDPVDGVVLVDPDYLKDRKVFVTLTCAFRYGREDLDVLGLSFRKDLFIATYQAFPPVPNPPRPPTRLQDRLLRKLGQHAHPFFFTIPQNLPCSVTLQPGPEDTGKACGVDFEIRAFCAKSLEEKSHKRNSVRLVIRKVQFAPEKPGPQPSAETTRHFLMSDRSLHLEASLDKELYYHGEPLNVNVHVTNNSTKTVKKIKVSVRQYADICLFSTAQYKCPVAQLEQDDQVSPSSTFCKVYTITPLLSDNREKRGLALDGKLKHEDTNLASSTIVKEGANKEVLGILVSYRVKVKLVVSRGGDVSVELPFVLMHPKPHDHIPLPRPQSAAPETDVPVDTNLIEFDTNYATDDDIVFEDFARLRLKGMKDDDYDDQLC

The target in experiment [2] is T1, S1P1. Briefly: CNG cAMP Assay (Assay 1). The experiment is classed as cell-based. Details: host or cells: HEK293 cells expressing the CNG channel. The following applies: read-out: Assay 1 EC50. The essentials:
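cAMP-gated CNG membrane-potential read-out (350/590 nm, T90/T0 ratio) in S1P1/CNG HEK293 cells after 90 min with compound plus NECA 500 nM, S1P 10 nM (EC95), Ro 20-1724 25 μM. Ten 3-fold points from 10 μM, 1.8% DMSO; percent activity vs NECA-only control gives EC50.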
Target sequence in this assay (P21453 whole entry): as the sequence (P21453 whole entry) above

For experiment [3], the target named is T1, S1P1. The experiment is described as follows: Tango β-arrestin Recruitment Assay in U2OS cells (Assay 2b). The experiment is classed as cell-based. Further details: linker with TEV protease (N1a) cleavage site (C). Conditions: Tango β-arrestin Recruitment Assay, read-out: Assay 2b EC50. In a few lines: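 Agonist EC50 from percent activity relative to 1 μM S1P efficacy control, using background-subtracted 460/530 nm emission ratios. Compounds (max 1 μM, ten 3-fold dilutions) incubated overnight at 37 °C with serum-starved S1P1 U2OS reporter cells, followed by 2 h β-lactamase reagent at room temperature.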
Target sequence in this assay (P21453 whole entry): as above
Target sequence in this assay (P32121 whole entry partner): as the sequence (P32121 whole entry partner) above

The target of experiment [4] is T2, hS1P1R (hEdg1) (Homo sapiens, UniProt P21453).
T2 construct: purchased Lonza
The experiment is described as follows: hS1P1R GTPγS Binding Assay (Assay 3a). It is filed as biochemical. The method, then:
The hS1P1R GTPγS binding assay was carried out at room temperature in 96 well non-binding surface assay plates. The reaction in each well contained 4 μg hS1P1R (hEdg1) membrane protein (Lonza), 30 μM GDP, 0.1 nM [^35S]GTPγS, 0.25% fatty acid free BSA, and serially diluted hS1P1R agonist compound in 200 μL assay buffer (25 mM Tris-HCl PH 7.9, 100 mM NaCl, 3 mM MgCl2, and 0.2 mM EGTA). After one hour of incubation, 0.9 mg of WGA (Wheat Germ Agglutinin) SPA beads in 50 μL of assay buffer was added to each well. The SPA beads were spun down after an additional one hour incubation. The radioactivity of the bound GTPγS was counted by reading the assay plate using a MicroBeta.
Assay 1 is the CNG cAMP Assay as described in Biological Example 1. Assay 2a and 2b are the Tango™ β-arrestin Recruitment Assay in HEK293 and U2OS cells, respectively, as described in Biological Example 2. Assay 3a is the hS1P1R GTPγS Binding Assay as described in Biological Example 3. Assay 3b is the GTP-Eu Binding Assay as described in Biological Example 3. EC50's were measured unless otherwise noted. […] In the table, “nt” means the Compound was not tested and “no” means the compound was tested but had no measurable activity under the assay conditions employed.

pEC50: −log10 of the molar value.

T2 sequence (P21453 whole entry): as the sequence (P21453 whole entry) above

For `OC[C@H](O)COc1cc(Cl)c(-c2noc(-c3cn4cc(C(F)(F)F)cc(Cl)c4n3)n2)cc1Cl` [Entry 39], the pEC50 in experiment [1], in experiment [2], in experiment [3] and in experiment [4] was not below 7.00 in each case.

Take `O=C(O)CCc1cc(Cl)c(-c2noc(-c3cn4cc(C(F)(F)F)cc(Br)c4n3)n2)cc1Cl` [Entry 68]: the negative-log EC50 (pEC50) in experiment [1], in experiment [2], in experiment [3] and in experiment [4] was not below 7.00 each time.

On to `CC(C)(O)COc1cc(Cl)c(-c2noc(-c3cn4cc(C(F)(F)F)cc(Cl)c4n3)n2)cc1Cl` [Example 166, 1-[(2,5-dichloro-4-{5-[8-chloro-6-(trifluoromethyl)imidazo[1,2-a]pyridin-2-yl]-1,2,4-oxadiazol-3-yl}phenyl)oxy]-2-methylpropan-2-ol], for which the pEC50 in experiment [1] is not below 7.00; in experiment [3] it was not below 7.00; in experiment [4], 6.30 to 7.00.

Turning to `OCCCc1cc(Cl)c(-c2noc(-c3cn4cc(C(F)(F)F)cc(Cl)c4n3)n2)cc1Cl` [Example 167, 3-(2,5-dichloro-4-{5-[8-chloro-6-(trifluoromethyl)imidazo[1,2-a]pyridin-2-yl]-1,2,4-oxadiazol-3-yl}phenyl)propan-1-ol], the negative logarithm of the EC50 (pEC50) in experiment [1], in experiment [3] and in experiment [4] was not below 7.00 throughout.

Turning to `Cc1cc(CCC(=O)O)c(Cl)cc1-c1noc(-c2cn3cc(C(F)(F)F)cc(Br)c3n2)n1` [Example 196, 3-(4-{5-[8-bromo-6-(trifluoromethyl)imidazo[1,2-a]pyridin-2-yl]-1,2,4-oxadiazol-3-yl}-2-chloro-5-methylphenyl)propanoic acid], the pEC50 in experiment [1], in experiment [2], in experiment [3] and in experiment [4] was not below 7.00 in each case.

`OCC(O)COc1cc(Cl)c(-c2noc(-c3cn4cc(C(F)(F)F)cc(Br)c4n3)n2)cc1Cl` (centres unmarked) [Example 212, 3-[(4-{5-[8-bromo-6-(trifluoromethyl)imidazo[1,2-a]pyridin-2-yl]-1,2,4-oxadiazol-3-yl}-2,5-dichlorophenyl)oxy]propane-1,2-diol]: the pEC50 in experiment [1], in experiment [3] and in experiment [4] was not below 7.00 throughout.

Take `OC[C@H](O)COc1cc(Cl)c(-c2nnc(-c3cn4cc(C(F)(F)F)cc(Cl)c4n3)s2)cc1Cl` [Example 252, (25)-3-[(2,5-dichloro-4-{5-[8-chloro-6-(trifluoromethyl)imidazo[1,2-a]pyridin-2-yl]-1,3,4-thiadiazol-2-yl}phenyl)oxy]propane-1,2-diol]: the pEC50 in experiment [1] was not below 7.00; in experiment [2], not below 7.00; in experiment [3], not below 7.00; in experiment [4], 6.00 to 6.30.

On to `OCCOc1cc(Cl)c(-c2noc(-c3cn4cc(C(F)(F)F)cc(Br)c4n3)n2)cc1Cl` [Example 277, 2-[(4-{5-[8-bromo-6-(trifluoromethyl)imidazo[1,2-a]pyridin-2-yl]-1,2,4-oxadiazol-3-yl}-2,5-dichlorophenyl)oxy]ethanol], for which the pEC50 in experiment [1], in experiment [3] and in experiment [4] was not below 7.00 each time.

For `OCC(CO)COc1cc(Cl)c(-c2noc(-c3cn4cc(C(F)(F)F)cc(Cl)c4n3)n2)cc1Cl` [Example 278, 2-{[(2,5-dichloro-4-{5-[8-chloro-6-(trifluoromethyl)imidazo[1,2-a]pyridin-2-yl]-1,2,4-oxadiazol-3-yl}phenyl)oxy]methyl}propane-1,3-diol], the pEC50 in experiment [1], in experiment [3] and in experiment [4] was not below 7.00 throughout.

As for `O=C(O)CCc1cc(Cl)c(-c2nnc(-c3cn4cc(C(F)(F)F)cc(Br)c4n3)s2)cc1Cl` [Example 286, 3-(4-{5-[8-bromo-6-(trifluoromethyl)imidazo[1,2-a]pyridin-2-yl]-1,3,4-thiadiazol-2-yl}-2,5-dichlorophenyl)propanoic acid], the pEC50 is not below 7.00 in experiment [1], not below 7.00 in experiment [3] and 5.30 to 6.00 in experiment [4].

Regarding `CC(C)(O)COc1cc(Cl)c(-c2noc(-c3cn4cc(C(F)(F)F)cc(Br)c4n3)n2)cc1Cl` [Example 287, 1-[(4-{5-[8-bromo-6-(trifluoromethyl)imidazo[1,2-a]pyridin-2-yl]-1,2,4-oxadiazol-3-yl}-2,5-dichlorophenyl)oxy]-2-methylpropan-2-ol], the pEC50 in experiment [1] is not below 7.00; in experiment [3], not below 7.00; in experiment [4], 6.30 to 7.00.

Take `OCCOc1cc(Cl)c(-c2noc(-c3cn4cc(C(F)(F)F)cc(Cl)c4n3)n2)cc1Cl` [Example 288, 2-[(2,5-dichloro-4-{5-[8-chloro-6-(trifluoromethyl)imidazo[1,2-a]pyridin-2-yl]-1,2,4-oxadiazol-3-yl}phenyl)oxy]ethanol]: the pEC50 in experiment [1], in experiment [2], in experiment [3] and in experiment [4] was not below 7.00 each time.

`OC[C@@H](O)COc1cc(Cl)c(-c2noc(-c3cn4cc(C(F)(F)F)cc(Cl)c4n3)n2)cc1Cl` [Example 289, (2R)-3-[(2,5-dichloro-4-{5-[8-chloro-6-(trifluoromethyl)imidazo[1,2-a]pyridin-2-yl]-1,2,4-oxadiazol-3-yl}phenyl)oxy]propane-1,2-diol]: the pEC50 in experiment [1], in experiment [2], in experiment [3] and in experiment [4] was not below 7.00 each time.

For `CC(O)COc1cc(Cl)c(-c2noc(-c3cn4cc(C(F)(F)F)cc(Cl)c4n3)n2)cc1Cl` (centres unmarked) [Example 292, 1-[(2,5-dichloro-4-{5-[8-chloro-6-(trifluoromethyl)imidazo[1,2-a]pyridin-2-yl]-1,2,4-oxadiazol-3-yl}phenyl)oxy]propan-2-ol], the pEC50 is not below 7.00 in experiment [1], not below 7.00 in experiment [2], not below 7.00 in experiment [3] and 6.30 to 7.00 in experiment [4].

With `C[C@@H](O)COc1cc(Cl)c(-c2noc(-c3cn4cc(C(F)(F)F)cc(Cl)c4n3)n2)cc1Cl` [Example 295, (2R)-1-[(2,5-dichloro-4-{5-[8-chloro-6-(trifluoromethyl)imidazo[1,2-a]pyridin-2-yl]-1,2,4-oxadiazol-3-yl}phenyl)oxy]propan-2-ol], the pEC50 in experiment [1], in experiment [3] and in experiment [4] was not below 7.00 in each case.

For the compound `O=C(O)CCc1cc(Cl)c(-c2nc(-c3cn4cc(C(F)(F)F)cc(Cl)c4n3)no2)cc1Cl` [Example 315, 3-(2,5-dichloro-4-{3-[8-chloro-6-(trifluoromethyl)imidazo[1,2-a]pyridin-2-yl]-1,2,4-oxadiazol-5-yl}phenyl)propanoic acid], the pEC50 was not below 7.00 in experiment [1], not below 7.00 in experiment [2], not below 7.00 in experiment [3] and 6.30 to 7.00 in experiment [4].

These data come from US20100160369A1, “S1P1 Agonists and Methods of Making And Using” (EXELIXIS, INC., priority 2008, published 2010).
